Assay [1] concerns the target Mitochondrial respiratory complex II (Mus musculus, UniProt Q8K2B3+Q9CQA3+Q9CXV1+Q9CZB0). The assay can be described thus: Complex II inhibition assay. The assay is classed as biochemical. Particulars: for inhibition at 100 µM: read-out: % Inhibition CII (100 μM), 100 μM; for inhibition at 100 µM / % Inhibition CII (100 μM): mouse liver mitochondria, mean ±SD of n = 4.

Assay [2] relates to CII. Conditions: read-out: CII IC50, cited from earlier work.
The test system of assay [3] is 22Rv1 prostate cancer cells. The assay can be described thus: MTS cytotoxicity assay in 22Rv1 prostate cancer cells. The assay is classed as cell-based. Particulars: for reduction of 22Rv1 cell viability: 100 μM, 48 hr treatment, MTS. (In general: Tetrazolium dyes change colour on reduction, which living cells bring about.)
Another assay has as its system TNBC MDA-MB-468 cells. The assay can be described thus: MTS cytotoxicity assay in MDA-MB-468 cells. It counts as cell-based. Particulars: for SI (Selectivity Index): MDA-MB-468 over HEK293 cells; for IC50: read-out: MDA-MB-468 IC50, 72 hours, mean ±SD of n=3.
Assay [4] has as its system low tumorigenic human endothelial kidney (HEK293) cells. The assay can be described thus: MTS cytotoxicity assay in HEK293 cells. It counts as cell-based. Particulars: Homo sapiens, HEK293, 72 h, read-out: HEK293 IC50.
The test system of assay [5] is CII. Particulars: read-out: CII IC50; rat heart mitochondria; cited from earlier work.
For a further assay, the system named is breast cancer. Conditions: 200–300 mg/day, nine patients, stable disease for 4–8 months; cited from earlier work.
For the next assay, the system named is TTK. Particulars: 100 μM, KinomeScan; cited from earlier work.
A further assay relates to IRAK1. Particulars: 100 μM, KinomeScan; cited from earlier work.
Assay [6] relates to 22Rv1 prostate cancer cells. Conditions: read-out: 22Rv1 IC50, clinical agents; cited from earlier work.

Where two headings read alike, the source gives them in different places.

Mitochondrial respiratory complex II, sequence (Q8K2B3 43-664): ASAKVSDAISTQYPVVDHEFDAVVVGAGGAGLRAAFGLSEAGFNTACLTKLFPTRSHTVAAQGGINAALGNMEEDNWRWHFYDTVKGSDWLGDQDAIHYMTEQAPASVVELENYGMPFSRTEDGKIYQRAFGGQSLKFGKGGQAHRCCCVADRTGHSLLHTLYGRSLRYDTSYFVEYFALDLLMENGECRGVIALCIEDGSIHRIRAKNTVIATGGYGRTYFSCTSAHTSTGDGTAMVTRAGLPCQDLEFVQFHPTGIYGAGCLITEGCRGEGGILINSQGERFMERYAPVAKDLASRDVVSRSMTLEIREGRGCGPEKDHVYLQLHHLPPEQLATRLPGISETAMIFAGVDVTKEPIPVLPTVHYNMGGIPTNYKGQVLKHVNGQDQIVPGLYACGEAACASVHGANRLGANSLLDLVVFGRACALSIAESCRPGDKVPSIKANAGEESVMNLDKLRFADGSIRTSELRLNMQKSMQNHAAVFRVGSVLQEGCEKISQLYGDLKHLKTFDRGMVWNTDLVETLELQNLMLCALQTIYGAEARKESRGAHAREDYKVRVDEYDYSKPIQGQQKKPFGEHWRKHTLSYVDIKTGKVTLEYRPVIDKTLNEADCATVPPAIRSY
Mitochondrial respiratory complex II, sequence (Q9CQA3 31-282): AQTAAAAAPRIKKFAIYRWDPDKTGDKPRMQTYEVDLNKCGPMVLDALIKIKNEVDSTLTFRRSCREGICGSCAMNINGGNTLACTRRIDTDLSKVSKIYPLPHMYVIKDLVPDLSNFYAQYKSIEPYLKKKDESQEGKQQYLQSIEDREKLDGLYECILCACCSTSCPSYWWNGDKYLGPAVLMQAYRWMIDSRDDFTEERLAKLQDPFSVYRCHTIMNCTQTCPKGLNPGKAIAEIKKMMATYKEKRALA
Mitochondrial respiratory complex II, sequence (Q9CZB0 30-169): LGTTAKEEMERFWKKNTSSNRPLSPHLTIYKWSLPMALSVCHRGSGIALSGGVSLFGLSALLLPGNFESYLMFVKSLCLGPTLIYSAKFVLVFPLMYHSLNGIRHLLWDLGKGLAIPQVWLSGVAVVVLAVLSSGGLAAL
Mitochondrial respiratory complex II, sequence (Q9CXV1 57-159): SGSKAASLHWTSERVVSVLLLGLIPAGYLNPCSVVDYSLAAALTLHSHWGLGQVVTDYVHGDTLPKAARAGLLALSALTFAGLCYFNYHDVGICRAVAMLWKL

As to `COc1[nH]c(=O)c(C(=O)[C@@H](C)C[C@H](C)[C@@H](Cl)CCl)c(O)c1OC` [Atpenin A5, atpenin A5], the inhibition (in general, the change of the read-out against control, counted positive when it falls) at 0.1 µM in [1] (read-out: % inhibition of CII at 0.1 μM) is 93%. The figures for the IC50 in the assay on CII [2] (positive control) and with CII [2] (ubiquinone binding site (IIQ)) were 0.0033 µM and 0.0036 to 0.01 µM, respectively.
As for `COc1ccc(CNC2=NS(=O)(=O)c3cc(Br)ccc3N2)cc1` [Compound 20c, 7-Bromo-3-((4-methoxybenzyl)amino)-4H-benzo[e][1,2,4]thiadiazine 1,1-dioxide], in [1], the IC50 – broadly, the concentration that gives 50% inhibition – is 79.7 ± 4 µM and the inhibition at 100 µM was 64 ± 15.3%. Also, the “reduction of 22Rv1 cell viability” value in [3] turned out to be 41%. In addition, the “SI (Selectivity Index)” value in the assay on TNBC MDA-MB-468 cells worked out at 3.23. In addition, the IC50 in assay [4] is 88 ± 12.3 µM.
`O=S1(=O)N=C(NCCCc2ccccc2)Nc2ccc(Br)cc21` [Compound 23c, 7-Bromo-3-((3-phenylpropyl)amino)-4H-benzo[e][1,2,4]thiadiazine 1,1-dioxide]: in [1], the “% Inhibition CII (100 μM)” value was found to be 46 ±13.4% and the inhibition at 100 µM came out at 47%. For the same molecule, in assay [3], the “reduction of 22Rv1 cell viability” value is 42%. In addition, the “SI (Selectivity Index)” value with TNBC MDA-MB-468 cells came out at 7.75. Besides, the IC50 in [4] was determined as 71.8 ± 8.2 µM.
With `CC(NC1=NS(=O)(=O)c2cc(F)ccc2N1)c1ccccc1` (stereo not drawn) [Compound 24a, 7-Fluoro-3-((1-phenylethyl)amino)-4H-benzo[e][1,2,4]thiadiazine 1,1-dioxide], the inhibition at 100 µM in assay [1] was 22 ± 9.9%. The “reduction of 22Rv1 cell viability” value in [3] was 34%. The “SI (Selectivity Index)” value in the assay with TNBC MDA-MB-468 cells is given as 10.2. For the same molecule, the IC50 in [4] worked out at 42.6 ± 5.9 µM.
Consider `CC(NC1=NS(=O)(=O)c2ccc(Cl)cc2N1)c1ccccc1` (stereo not drawn) [Compound 24b, 6-Chloro-3-((1-phenylethyl)amino)-4H-benzo[e][1,2,4]thiadiazine 1,1-dioxide], for which the IC50 stood at 89 ± 10.4 µM in [1] and 118 ± 22.3 µM in assay [4]. In assay [1], the inhibition at 100 µM amounted to 51 ± 13.9%. For the same molecule, the “reduction of 22Rv1 cell viability” value in [3] was found to be 50%. Further, in the assay with TNBC MDA-MB-468 cells, the “SI (Selectivity Index)” value is 2.72.
With `CC(NC1=NS(=O)(=O)c2cc(Br)ccc2N1)c1ccccc1` (stereo not drawn) [Compound 24c, 7-Bromo-3-((1-phenylethyl)amino)-4H-benzo[e][1,2,4]thiadiazine 1,1-dioxide], the IC50 in [1] was 79.8 ± 4.1 µM; in assay [3] (Homo sapiens, 22Rv1, read-out: 22Rv1 IC50), 38.9 ± 3.2 µM; in [4] it was 32.2 ± 1.5 µM. For the same molecule, the inhibition at 100 µM in assay [1] was found to be 55 ± 8.2%. For the same molecule, the “reduction of 22Rv1 cell viability” value in [3] came to 70%. In addition, the “SI (Selectivity Index)” value with TNBC MDA-MB-468 cells stood at 11.
With `CC(NC1=NS(=O)(=O)c2ccccc2N1)c1ccccc1` (stereo not drawn) [Compound 24d, 3-((1-Phenylethyl)amino)-4H-benzo[e][1,2,4]thiadiazine 1,1-dioxide], the inhibition at 100 µM in [1] was 0%. In addition, the “reduction of 22Rv1 cell viability” value in [3] is on record as “approximately 30%”. In the assay with TNBC MDA-MB-468 cells, the “SI (Selectivity Index)” value stood at 3.92. The IC50 in [4] was determined as 48.6 ± 1.7 µM.
For `O=S1(=O)N=C(NCc2ccc(C(F)(F)F)cc2)Nc2ccc(Br)cc21` [Compound 25c, 7-Bromo-3-((4-(trifluoromethyl)benzyl)amino)-4H-benzo[e][1,2,4]thiadiazine 1,1-dioxide], in [3], the “reduction of 22Rv1 cell viability” value stood at 34%. Moreover, the IC50 in assay [4] was determined as 57.5 ± 4.7 µM.
Regarding `O=S1(=O)N=C(NCc2ccc(OC(F)(F)F)cc2)Nc2ccc(Br)cc21` [Compound 30c, 7-Bromo-3-((4-(trifluoromethoxy)benzyl)amino)-4H-benzo[e][1,2,4] thiadiazine 1,1-dioxide], in [1], the “% Inhibition CII (100 μM)” value came to 22 ±21.1% and the inhibition at 100 µM is 21%. In addition, the “reduction of 22Rv1 cell viability” value in assay [3] amounted to 45%. In addition, in the assay with TNBC MDA-MB-468 cells, the “SI (Selectivity Index)” value is 2.93 and the IC50 worked out at 18 ± 1.4 µM. Moreover, in assay [4], the half-maximal inhibitory concentration (IC50) was 52.9 ± 1.8 µM.
In the case of `CC1=Nc2ccc(Cl)cc2S(=O)(=O)N1` [Diazoxide, 7-chloro-3-methyl-2H-1,2,4-benzothiadiazine 1,1-dioxide, reference compound], the IC50 was 1236 ± 2.5 µM in [1], 434 ± 26.2 µM in the assay on TNBC MDA-MB-468 cells, 547 ± 34.1 µM in [4] and 32 µM in the assay with CII [5]. Besides, in assay [1] (listed as DZX), the “% Inhibition CII (100 μM)” value is given as “no CII inhibition activity”. Further, the inhibition at 100 µM in assay [1] turned out to be 9%. In addition, the “effect to reduce cell viability of prostate cancer cells” value in [3] (100 μM up to 72 hours) was “no effect”. Moreover, the “effect to reduce cell viability of breast cancer cells” value with TNBC MDA-MB-468 cells (100 μM up to 72 hours) is reported as “no effect”. For the same molecule, the “SI (Selectivity Index)” value in the assay on TNBC MDA-MB-468 cells was 1.26. Further, the response rate in the assay on breast cancer is given as 33%. Moreover, the kinase inhibition is recorded as 15% in the assay with TTK and 9% in the assay with IRAK1.
Regarding `O=C(O)CC(=O)O` [Malonate], the IC50 with CII [2] (competitive CII inhibitor) was 40 µM.
For `O=C(CC(=O)C(F)(F)F)c1cccs1` [TFFA, Thenoyltrifluoroacetone], in the assay on CII [2] (control compound in CII assays), the IC50 is 30 µM.
Regarding `CNC(=O)c1ccc(N2C(=S)N(c3cnc(C#N)c(C(F)(F)F)c3)C(=O)C23CCC3)cc1F` [apalutamide], in assay [6], the IC50 was 77 ± 17 µM.
On to `CC(O)c1cc(C(=O)N[C@@H](C)Cn2ccc(-c3ccc(C#N)c(Cl)c3)n2)[nH]n1` (stereo partly drawn) [darolutamide], for which the IC50 in assay [6] was 46 ± 10 µM.
With `Cc1c(C)c2c(c(C)c1OC(=O)CCC(=O)O)CC[C@@](C)(CCC[C@H](C)CCC[C@H](C)CCCC(C)C)O2` [α-TOS, α -Tocopheryl succinate], in the assay with CII [2], the IC50 was 42 µM.
